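Cells were grown in 96-well plates and exposed to each compound for 48 hours at five concentrations; endpoints were interpolated linearly between bracketing concentrations, or set to the highest concentration if not reached. The concentration for 50% growth inhibition is given as GI50.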 Active and inactive are the calls of the source. Rule as the data show it: active = GI50 up to about 1.1 µM and inactive = higher.
Legend:
Assay in all cases: NCI anticancer screen, dose series, 48 h
[1] = tested on: BT-549
[2] = tested on: RXF 393
[3] = tested on: TK-10
[4] = tested on: A498
[5] = tested on: SK-MEL-5
[6] = tested on: K562
[7] = tested on: T47D
[8] = tested on: 786-0
[9] = tested on: OVCAR-4
[10] = tested on: U-251
[11] = tested on: SW-620
[12] = tested on: DU-145
[13] = tested on: EKVX
[14] = tested on: RPMI-8226
[15] = tested on: HT-29
[16] = tested on: MCF7
[17] = tested on: PC-3
[18] = tested on: UACC-62
[19] = tested on: UO-31
[20] = tested on: SNB-75

Measured: GI50

Cc1cc(C)nc(NC(=S)Nc2ccc([N+](=O)[O-])cc2)c1
inactive: [1] > 100 µM | [2] > 100 µM | [3] > 100 µM | [4] > 100 µM | [5] > 100 µM | [6] 45.2 µM | [7] > 100 µM | [8] > 100 µM | [9] > 100 µM | [10] > 100 µM | [11] > 100 µM | [12] > 100 µM | [13] > 100 µM | [14] > 100 µM | [15] > 100 µM | [16] > 100 µM | [17] > 100 µM | [18] > 100 µM | [19] > 100 µM | [20] > 100 µM

CC(C)(C)OC(=O)NCC(=O)N1CCCN(C(=O)CNC(=O)OC(C)(C)C)CC1
inactive: [1] > 100 µM | [2] > 100 µM | [3] > 100 µM | [4] > 100 µM | [5] > 100 µM | [6] > 100 µM | [7] > 100 µM | [8] > 100 µM | [9] > 100 µM | [10] > 100 µM | [11] > 100 µM | [12] > 100 µM | [13] > 100 µM | [14] > 100 µM | [15] > 100 µM | [16] > 100 µM | [17] > 100 µM | [18] > 100 µM | [19] > 100 µM | [20] > 100 µM

[N-]=[N+]=Nc1ccccc1-c1ccccc1[N+](=O)[O-]
inactive: [1] 32.3 µM | [2] 86.1 µM | [3] 39.4 µM | [4] 45 µM | [6] 31.3 µM | [7] 38.4 µM | [8] 88.1 µM | [9] 72.9 µM | [10] 42.9 µM | [11] 48.5 µM | [12] 88.5 µM | [13] 39.4 µM | [14] 26 µM | [15] 44.3 µM | [16] 52 µM | [17] 37.8 µM | [18] 74.3 µM | [19] 72.8 µM | [20] 50 µM

c1cc2nnc1SCCCSc1ccc(nn1)SCCCSc1ccc(nn1)SCCCS2
inactive: [1] > 100 µM | [2] 56.4 µM | [3] > 100 µM | [4] > 100 µM | [5] > 100 µM | [6] > 100 µM | [7] > 100 µM | [8] 61 µM | [9] > 100 µM | [10] 65.2 µM | [11] > 100 µM | [12] > 100 µM | [14] > 100 µM | [15] > 100 µM | [16] > 100 µM | [17] > 100 µM | [18] > 100 µM | [19] > 100 µM | [20] 28.6 µM

— ChEMBL document CHEMBL1201862, “PubChem BioAssay data set” (2004)
